Experimental data published in US10526316B2, “Quinoxaline and pyridopyrazine derivatives as PI3Kβ inhibitors” (Janssen Pharmaceutica NV, priority 2015, dated 2020).
pIC50, pKd: −log10 of the molar value. Where two headings read alike, the source gives them in different places.

What was measured:
[1] = target: T1, PI3Kβ (Homo sapiens, UniProt P42338); assay: Enzyme binding assay (KINOMEscan, DiscoveRx); conditions: PIK3Cβ_h, read-out: Kd PIK3Cβ_h
T1 construct: purchased DiscoveRx Corporation, San Diego (contract service, KINOMEscan)
Method in brief: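 Compounds are profiled for binding to the kinase using KINOMEscan. The affinity is then reported as an inhibitor Kd in nanomolar units.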

[2] = tested on: Akt phosphorylated at Thr308 in PC-3 cells; assay: Cellular assay: phosphorylation of Akt at Thr308 in PC-3 cells (MSD ELISA); format: cell-based; conditions: PC-3 cells, 60 min compound incubation, MSD ELISA, read-out: IC50 pAkt_Thr308
Method in brief: (§1)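 PC-3 cells were exposed to compound or 0.3% DMSO for 60 min at 37° C, 5% CO2, then lysed in ice-cold buffer. Phospho-Akt was captured on site-specific antibody-coated plates and detected with Sulfo-tag anti-total Akt by electrochemiluminescence. IC50 values came from five-concentration response curves.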

[3] = target: T2, kinase enzymes (Homo sapiens, UniProt P48736); assay: Enzyme binding assay (KINOMEscan, DiscoveRx), further kinases of Table A; conditions: PIK3Cγ_h
T2 construct: purchased DiscoveRx Corporation, San Diego (contract service, KINOMEscan)
Method in brief: (§2)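 Compounds were profiled by KINOMEscan to obtain kinase binding affinities.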

[4] = target: T3, kinase enzymes (Homo sapiens, UniProt P42336); assay: as above; conditions: PIK3Cα_h
T3 construct: purchased DiscoveRx Corporation, San Diego (contract service, KINOMEscan)
Method in brief: as §2

[5] = target: T4, kinase enzymes (Homo sapiens, UniProt P42345); assay: as above; conditions: MTOR_h
T4 construct: purchased DiscoveRx Corporation, San Diego (contract service, KINOMEscan)
Method in brief: as §2

[6] = tested on: Akt phosphorylated at Ser473 in PC-3 cells; assay: Cellular assay: phosphorylation of Akt at Ser473 in PC-3 cells (MSD ELISA); format: cell-based; conditions: PC-3 cells, 60 min compound incubation, MSD ELISA, read-out: IC50 pAkt_S473
Method in brief: as §1

[7] = target: T5, PI3Kδ (Homo sapiens, UniProt O00329); assay: Enzyme binding assay (KINOMEscan, DiscoveRx); conditions: PIK3Cδ_h
T5 construct: purchased DiscoveRx Corporation, San Diego (contract service, KINOMEscan)
T5 sequence (O00329 1-1044): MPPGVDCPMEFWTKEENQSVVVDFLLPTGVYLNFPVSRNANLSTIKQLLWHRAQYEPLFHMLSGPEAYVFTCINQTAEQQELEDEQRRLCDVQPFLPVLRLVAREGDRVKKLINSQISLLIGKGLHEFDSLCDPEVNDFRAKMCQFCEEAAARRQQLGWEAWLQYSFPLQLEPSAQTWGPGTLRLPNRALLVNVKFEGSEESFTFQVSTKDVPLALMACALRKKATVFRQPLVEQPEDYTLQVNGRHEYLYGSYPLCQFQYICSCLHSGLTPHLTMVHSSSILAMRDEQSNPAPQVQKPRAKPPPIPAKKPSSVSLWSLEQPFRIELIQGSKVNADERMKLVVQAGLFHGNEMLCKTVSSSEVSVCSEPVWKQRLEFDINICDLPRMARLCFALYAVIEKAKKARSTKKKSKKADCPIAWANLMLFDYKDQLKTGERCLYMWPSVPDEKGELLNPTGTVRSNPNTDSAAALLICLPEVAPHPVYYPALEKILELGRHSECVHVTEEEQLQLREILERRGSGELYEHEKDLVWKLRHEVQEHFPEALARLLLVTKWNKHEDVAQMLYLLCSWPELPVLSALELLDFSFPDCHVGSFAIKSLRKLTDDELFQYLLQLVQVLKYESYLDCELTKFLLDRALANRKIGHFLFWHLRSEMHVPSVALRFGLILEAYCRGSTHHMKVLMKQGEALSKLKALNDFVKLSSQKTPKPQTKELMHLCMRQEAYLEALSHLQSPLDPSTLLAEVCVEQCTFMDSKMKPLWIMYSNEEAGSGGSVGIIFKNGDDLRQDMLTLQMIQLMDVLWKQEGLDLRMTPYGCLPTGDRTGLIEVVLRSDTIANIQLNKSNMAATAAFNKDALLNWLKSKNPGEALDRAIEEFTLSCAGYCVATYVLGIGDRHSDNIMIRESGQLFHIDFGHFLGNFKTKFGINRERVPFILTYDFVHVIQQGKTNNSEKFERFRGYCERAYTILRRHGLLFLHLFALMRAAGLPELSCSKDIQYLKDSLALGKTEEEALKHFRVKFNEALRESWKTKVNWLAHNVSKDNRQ
Method in brief: as §2

T2 sequence (P48736 whole entry): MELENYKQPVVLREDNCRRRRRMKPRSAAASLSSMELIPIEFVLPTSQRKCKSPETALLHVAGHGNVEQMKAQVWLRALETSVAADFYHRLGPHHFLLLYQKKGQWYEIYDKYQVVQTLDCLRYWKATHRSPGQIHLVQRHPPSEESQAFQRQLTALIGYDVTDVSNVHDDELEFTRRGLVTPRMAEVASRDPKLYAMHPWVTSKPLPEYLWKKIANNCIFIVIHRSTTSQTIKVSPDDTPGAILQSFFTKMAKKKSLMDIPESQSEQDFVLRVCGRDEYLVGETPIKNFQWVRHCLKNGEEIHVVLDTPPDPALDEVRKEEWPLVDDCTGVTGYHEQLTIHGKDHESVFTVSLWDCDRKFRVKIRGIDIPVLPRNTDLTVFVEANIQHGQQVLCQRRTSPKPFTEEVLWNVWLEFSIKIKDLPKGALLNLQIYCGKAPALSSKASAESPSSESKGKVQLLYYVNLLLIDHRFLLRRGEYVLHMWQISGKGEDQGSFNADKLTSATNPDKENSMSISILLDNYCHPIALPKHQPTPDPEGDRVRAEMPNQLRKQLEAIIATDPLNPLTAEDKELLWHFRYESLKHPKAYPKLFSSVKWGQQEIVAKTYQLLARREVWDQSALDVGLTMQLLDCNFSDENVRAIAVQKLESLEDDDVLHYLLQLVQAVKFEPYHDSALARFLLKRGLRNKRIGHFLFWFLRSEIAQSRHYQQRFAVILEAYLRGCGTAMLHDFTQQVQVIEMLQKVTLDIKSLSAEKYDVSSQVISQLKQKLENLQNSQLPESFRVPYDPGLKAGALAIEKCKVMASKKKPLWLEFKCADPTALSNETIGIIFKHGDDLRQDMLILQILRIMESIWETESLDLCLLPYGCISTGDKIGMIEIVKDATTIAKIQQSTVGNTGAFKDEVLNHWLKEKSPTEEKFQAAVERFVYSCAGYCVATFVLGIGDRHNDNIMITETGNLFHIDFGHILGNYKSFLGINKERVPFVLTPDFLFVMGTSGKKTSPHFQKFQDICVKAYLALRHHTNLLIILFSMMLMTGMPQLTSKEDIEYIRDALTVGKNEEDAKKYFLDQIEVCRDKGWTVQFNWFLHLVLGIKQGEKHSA
T3 sequence (P42336 whole entry): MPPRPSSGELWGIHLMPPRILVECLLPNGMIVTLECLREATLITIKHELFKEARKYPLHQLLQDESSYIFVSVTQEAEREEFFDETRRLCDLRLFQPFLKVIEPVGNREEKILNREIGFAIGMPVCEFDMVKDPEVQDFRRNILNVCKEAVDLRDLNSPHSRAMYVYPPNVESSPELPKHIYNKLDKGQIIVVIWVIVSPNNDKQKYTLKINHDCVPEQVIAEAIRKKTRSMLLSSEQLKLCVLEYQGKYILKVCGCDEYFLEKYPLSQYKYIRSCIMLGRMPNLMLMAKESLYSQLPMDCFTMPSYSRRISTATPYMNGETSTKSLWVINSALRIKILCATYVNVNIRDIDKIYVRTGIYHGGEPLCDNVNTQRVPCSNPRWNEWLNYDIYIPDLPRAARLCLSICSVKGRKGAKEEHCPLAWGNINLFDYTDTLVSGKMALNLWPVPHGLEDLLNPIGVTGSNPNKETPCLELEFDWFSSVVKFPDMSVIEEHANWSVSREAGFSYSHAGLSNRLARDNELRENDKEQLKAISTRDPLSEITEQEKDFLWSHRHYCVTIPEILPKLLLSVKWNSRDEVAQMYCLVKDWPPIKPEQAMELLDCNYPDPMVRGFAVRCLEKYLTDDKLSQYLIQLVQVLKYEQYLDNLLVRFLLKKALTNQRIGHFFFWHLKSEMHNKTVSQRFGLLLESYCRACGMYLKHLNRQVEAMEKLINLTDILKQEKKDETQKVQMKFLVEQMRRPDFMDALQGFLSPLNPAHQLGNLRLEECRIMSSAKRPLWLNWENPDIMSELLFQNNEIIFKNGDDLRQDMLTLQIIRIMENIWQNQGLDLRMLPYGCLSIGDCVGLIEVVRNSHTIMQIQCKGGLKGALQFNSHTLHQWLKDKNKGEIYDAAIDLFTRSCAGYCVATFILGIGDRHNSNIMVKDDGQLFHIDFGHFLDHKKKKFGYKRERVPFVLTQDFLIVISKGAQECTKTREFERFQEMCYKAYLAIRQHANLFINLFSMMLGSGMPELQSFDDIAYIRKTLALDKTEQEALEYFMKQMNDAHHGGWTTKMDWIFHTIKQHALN
T1 sequence (P42338 whole entry): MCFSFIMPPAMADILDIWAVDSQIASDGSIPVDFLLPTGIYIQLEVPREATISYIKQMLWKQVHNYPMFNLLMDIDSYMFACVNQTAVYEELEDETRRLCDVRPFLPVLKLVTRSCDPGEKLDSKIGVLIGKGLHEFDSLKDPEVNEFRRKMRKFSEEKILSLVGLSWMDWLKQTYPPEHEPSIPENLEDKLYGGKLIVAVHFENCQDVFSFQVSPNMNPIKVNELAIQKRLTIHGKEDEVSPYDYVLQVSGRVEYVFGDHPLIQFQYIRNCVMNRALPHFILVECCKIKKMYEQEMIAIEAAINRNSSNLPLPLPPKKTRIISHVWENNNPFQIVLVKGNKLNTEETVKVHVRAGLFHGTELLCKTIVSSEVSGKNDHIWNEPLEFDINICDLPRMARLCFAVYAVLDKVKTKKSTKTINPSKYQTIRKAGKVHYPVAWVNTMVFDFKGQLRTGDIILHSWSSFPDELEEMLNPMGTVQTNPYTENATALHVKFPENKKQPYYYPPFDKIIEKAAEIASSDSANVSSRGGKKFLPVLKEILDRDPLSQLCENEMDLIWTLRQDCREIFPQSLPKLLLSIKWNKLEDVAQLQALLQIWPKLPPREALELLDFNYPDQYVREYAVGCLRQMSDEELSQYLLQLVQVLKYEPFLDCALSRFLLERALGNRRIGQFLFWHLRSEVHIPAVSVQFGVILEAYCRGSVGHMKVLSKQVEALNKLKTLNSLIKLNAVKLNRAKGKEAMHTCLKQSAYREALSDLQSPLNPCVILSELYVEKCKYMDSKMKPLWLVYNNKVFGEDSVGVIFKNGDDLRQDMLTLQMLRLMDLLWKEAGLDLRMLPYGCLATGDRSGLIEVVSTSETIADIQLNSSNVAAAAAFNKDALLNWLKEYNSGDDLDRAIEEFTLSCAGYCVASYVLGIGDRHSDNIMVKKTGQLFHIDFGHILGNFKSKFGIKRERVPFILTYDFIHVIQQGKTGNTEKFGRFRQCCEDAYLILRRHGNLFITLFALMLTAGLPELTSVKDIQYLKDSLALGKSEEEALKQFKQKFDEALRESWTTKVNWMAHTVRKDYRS

SMILES | pKd [1] | melting point | pIC50 ([2]; Homo sapiens, PC-3, 1 h) | pKd [3] | pKd [4] | pKd [5] | pIC50 ([6]; Homo sapiens, PC-3, 1 h) | pKd [7] | pIC50 [2] | pIC50 [6]
CCN(c1cccc(F)c1)C(C)c1cc(C(=O)N2CCOCC2)cc2ncc(N3CCOCC3)nc12 (centres unmarked) [Compound 20] | 7.77 | 80 °C | 6.43 | 4.65 | 5.44 | 4.66 | 6.44 | 5.81 | – | –
CON(C)C(=O)c1cc(C2CCCN2c2cc(F)cc(F)c2)c2nc(N3CCOCC3)cnc2c1 (centres unmarked) [Compound 51] | 9.00 | 80 °C | 8.52 | 6.47 | 7.26 | < 4.52 | 8.52 | 7.41 | – | –
COc1cccc(NC(C)c2cc(C(=O)N3CCOCC3)cc3ncc(N4CCOCC4)nc23)c1 (centres unmarked) [Compound 121] | 8.00 | 80 °C | ~6.48 | < 4.52 | 5.27 | < 4.52 | 6.46 | 5.80 | – | –
Cc1ccc(NC(C)c2cc(C(=O)NCCO)cc3ncc(N4CCOCC4)nc23)cc1F (single isomer, unassigned) [Compound 295b] | 4.71 | 120 °C | < 6.29 | 5.34 | < 4.52 | < 4.52 | < 6.29 | < 4.52 | – | –
CNCCOCCN(C)C(=O)c1cc(C(C)Nc2ccc(F)c(F)c2)c2nc(N3CCOCC3)cnc2c1 (single isomer, unassigned) [Compound 345a] | 8.70 | 80 °C | – | 4.83 | 5.36 | < 4.52 | – | 6.55 | 7.55 | 7.10
CC(Nc1cc(F)cc(F)c1)c1cc(CNCCS(C)(=O)=O)cc2ncc(N3CCOCC3)nc12 (centres unmarked) [Compound 173] | 9.00 | 80 °C | 7.28 | 5.45 | 6.08 | 4.61 | 7.11 | 6.43 | – | –
CN(C)C(=O)c1cc(N2CCC2c2ccc(F)cc2)c2nc(N3CCOCC3)cnc2c1 (single isomer, unassigned) [Compound 397a] | 5.85 | 80 °C | < 6.29 | 4.60 | 5.44 | 4.81 | < 6.29 | 4.97 | – | –
O=C(c1cc(C2CCCN2c2cc(F)cc(F)c2)c2nc(N3CCOCC3)cnc2c1)N1CC2(COC2)C1 (single isomer, unassigned) [Compound 47] | 9.70 | 80 °C | 8.40 | 6.12 | 7.39 | 4.83 | 8.52 | 7.49 | – | –
CNCC(O)c1cc(C2CCCN2c2cc(F)cc(F)c2)c2nc(N3CCOCC3)cnc2c1 (centres unmarked) [Compound 19] | 9.70 | 80 °C | 8.00 | 6.51 | 6.44 | 4.74 | 7.82 | 7.54 | – | –
CC(Nc1cc(F)cc(F)c1)c1cc(C(=O)NC[C@@H](C)O)cc2ncc(N3CCOCC3)nc12 (single isomer, unassigned) [Compound 201] | 8.70 | 70 °C | – | 5.35 | 5.84 | 4.78 | – | 6.15 | 7.59 | 7.38
CC(Oc1ccc(F)c(F)c1)c1cc(C(=O)N(C)CCN(C)C)cc2ncc(N3CCOCC3)nc12 (centres unmarked) [Compound 353] | 8.40 | 80 °C | 7.74 | < 4.52 | 5.30 | < 4.52 | 7.28 | 6.16 | – | –
CCN1CCN(C(=O)c2cc(C(C)Nc3cccc(F)c3)c3nc(N4CCOCC4)cnc3c2)CC1 (single isomer, unassigned) [Compound 114] | 9.00 | 303 °C | – | 5.16 | 5.79 | < 4.52 | – | 6.73 | 7.74 | 7.30
CC(Oc1cc(F)cc(F)c1)c1cc(C(=O)N(C)C)cc2ncc(C3=CCOCC3)nc12 (single isomer, unassigned) [Compound 403a] | 8.52 | 53 °C | – | 5.05 | 5.83 | < 4.52 | ~6.56 | 6.48 | ~6.88 | –
Fc1cc(F)cc(N2CCCC2c2cncc3ncc(N4CCOCC4)nc23)c1 (single isomer, unassigned) [Compound 24] | 9.00 | 100 °C | – | 6.43 | 6.52 | 4.73 | – | 6.61 | 7.52 | 7.44
Cc1cc(F)cc(N2CCCC2c2cc(C(=O)N(C)C)cc3ncc(N4CCOCC4)nc23)c1 (centres unmarked) [Compound 35] | 8.70 | 80 °C | ~7.57 | 5.72 | 6.79 | < 4.52 | ~7.41 | 6.82 | – | –
CC(Nc1cccc(Cl)c1)c1cc(C(=O)N2CCOCC2)cc2ncc(N3CCOCC3)nc12 (centres unmarked) [Compound 119] | 8.70 | 80 °C | 7.09 | 4.93 | 5.65 | < 4.52 | 6.98 | 6.31 | – | –
CC(Oc1cccc(F)c1)c1cc(C(=O)N(C)C)cc2ncc(N3CCOCC3)nc12 (centres unmarked) [Compound 68] | 8.52 | 49 °C | 6.83 | 4.82 | 5.50 | 4.65 | 6.59 | 6.23 | – | –
C[C@H](CO)NCc1ccc(F)cc1N1CCCC1c1cc(C(=O)N(C)C)cc2ncc(N3CCOCC3)nc12 (mixture of isomers) [Compound 67] | 7.74 | 80 °C | 6.78 | 4.68 | 5.61 | < 4.52 | 6.71 | 6.21 | – | –
CC(O)c1cc(C2CCCN2c2cc(F)cc(F)c2)c2nc(N3CCOCC3)cnc2c1 (centres unmarked) [Compound 16] | 9.00 | 80 °C | 8.70 | 6.90 | 7.03 | 4.77 | ~8.30 | 7.80 | – | –
O=C(c1cc(C2CCCN2c2cc(F)cc(F)c2)c2nc(N3CCOCC3)cnc2c1)N1CC2(C1)CS(=O)(=O)C2 (centres unmarked) [Compound 34] | 9.40 | 160 °C | 8.52 | 6.03 | 7.30 | < 4.52 | > 9.10 | 7.52 | – | –
COCCNCc1cc(C2CCCN2c2cc(F)cc(F)c2)c2nc(N3CCOCC3)cnc2c1 (centres unmarked) [Compound 103] | 8.52 | 80 °C | 7.55 | 5.52 | 5.95 | 4.61 | 7.19 | 6.00 | – | –
COC(=O)c1cc(C(C)Nc2cc(F)cc(F)c2)c2nc(N3CCOCC3)cnc2c1 (centres unmarked) [Compound 80] | 7.30 | 244 °C | – | 4.61 | < 4.52 | < 4.52 | – | 5.12 | ~7.10 | ~6.67
